ChEMBL document CHEMBL1138068 (J Med Chem, 2006)

Legend:
[1] = target: Neuronal acetylcholine receptor subunit alpha-7 (Rattus norvegicus, UniProt Q05941); assay: Displacement of [125I]alpha-BTX from alpha-7 nAChR in rat hippocampus membrane; type: cell membranes
Cytochrome P450 3A4 = Cytochrome P450 3A4 (Homo sapiens, UniProt P08684); assay: Inhibition of CYP3A4; type: ADME
Cytochrome P450 2D6 = Cytochrome P450 2D6 (Homo sapiens, UniProt P10635); assay: Inhibition of CYP2D6; type: ADME
Cytochrome P450 2C9 = Cytochrome P450 2C9 (Homo sapiens, UniProt P11712); assay: Inhibition of CYP2C9; type: ADME
Cytochrome P450 1A2 = Cytochrome P450 1A2 (Homo sapiens, UniProt P05177); assay: Inhibition of CYP1A2; type: ADME
Cytochrome P450 2C19 = Cytochrome P450 2C19 (Homo sapiens, UniProt P33261); assay: Inhibition of CYP2C19; type: ADME
[2] = target: Neuronal acetylcholine receptor subunit alpha-7 (Homo sapiens) (UniProt P36544); assay: Activity at alpha-7 nAChR assessed as stimulation of relative inward current in cultured hippocampal neurons relative to choline; type: functional, tissue-based; settings: Hippocampus, filed as agonist
Neuronal acetylcholine receptor subunit alpha-7 (Homo sapiens), sequence (P36544 whole entry): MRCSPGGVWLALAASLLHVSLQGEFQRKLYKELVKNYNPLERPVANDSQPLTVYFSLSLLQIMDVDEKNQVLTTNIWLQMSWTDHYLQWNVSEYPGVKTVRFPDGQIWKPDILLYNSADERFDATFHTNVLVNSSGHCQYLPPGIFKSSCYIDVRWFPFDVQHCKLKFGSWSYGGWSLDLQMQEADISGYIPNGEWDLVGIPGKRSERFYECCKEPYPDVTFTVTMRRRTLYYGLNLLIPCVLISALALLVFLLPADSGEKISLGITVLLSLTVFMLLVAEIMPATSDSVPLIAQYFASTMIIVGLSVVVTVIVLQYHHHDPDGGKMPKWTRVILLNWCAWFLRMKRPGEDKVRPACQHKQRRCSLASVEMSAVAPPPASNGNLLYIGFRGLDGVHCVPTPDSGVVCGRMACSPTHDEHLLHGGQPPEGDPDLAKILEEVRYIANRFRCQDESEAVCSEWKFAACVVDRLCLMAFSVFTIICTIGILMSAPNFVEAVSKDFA

Neuronal acetylcholine receptor subunit alpha-7, sequence (Q05941 whole entry): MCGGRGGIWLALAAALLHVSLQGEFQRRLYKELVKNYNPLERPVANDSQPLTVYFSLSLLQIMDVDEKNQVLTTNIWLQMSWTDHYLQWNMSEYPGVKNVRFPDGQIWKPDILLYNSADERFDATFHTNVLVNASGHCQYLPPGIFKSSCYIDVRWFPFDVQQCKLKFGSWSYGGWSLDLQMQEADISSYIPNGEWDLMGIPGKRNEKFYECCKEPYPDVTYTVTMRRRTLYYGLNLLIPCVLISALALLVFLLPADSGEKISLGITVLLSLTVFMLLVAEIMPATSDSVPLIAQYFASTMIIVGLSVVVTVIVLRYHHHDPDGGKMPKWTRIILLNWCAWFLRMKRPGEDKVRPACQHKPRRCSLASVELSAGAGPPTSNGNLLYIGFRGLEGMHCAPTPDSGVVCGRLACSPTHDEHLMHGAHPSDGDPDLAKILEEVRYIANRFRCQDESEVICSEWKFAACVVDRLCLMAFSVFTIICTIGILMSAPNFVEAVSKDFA
Cytochrome P450 2D6, sequence (P10635 whole entry): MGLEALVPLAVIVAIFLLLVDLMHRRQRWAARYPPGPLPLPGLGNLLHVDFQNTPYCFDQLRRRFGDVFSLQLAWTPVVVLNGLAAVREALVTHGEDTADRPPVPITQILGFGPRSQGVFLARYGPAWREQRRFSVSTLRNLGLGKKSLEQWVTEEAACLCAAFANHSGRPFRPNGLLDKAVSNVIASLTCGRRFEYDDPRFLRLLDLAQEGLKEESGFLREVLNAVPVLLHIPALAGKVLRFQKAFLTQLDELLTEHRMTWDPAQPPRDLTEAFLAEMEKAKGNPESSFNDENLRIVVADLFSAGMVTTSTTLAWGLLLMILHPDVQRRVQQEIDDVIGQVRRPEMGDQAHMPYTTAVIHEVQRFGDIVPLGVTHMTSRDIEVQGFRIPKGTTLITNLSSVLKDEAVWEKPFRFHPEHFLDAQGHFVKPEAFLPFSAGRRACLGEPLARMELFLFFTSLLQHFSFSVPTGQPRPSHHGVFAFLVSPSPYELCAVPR
Cytochrome P450 3A4, sequence (P08684 whole entry): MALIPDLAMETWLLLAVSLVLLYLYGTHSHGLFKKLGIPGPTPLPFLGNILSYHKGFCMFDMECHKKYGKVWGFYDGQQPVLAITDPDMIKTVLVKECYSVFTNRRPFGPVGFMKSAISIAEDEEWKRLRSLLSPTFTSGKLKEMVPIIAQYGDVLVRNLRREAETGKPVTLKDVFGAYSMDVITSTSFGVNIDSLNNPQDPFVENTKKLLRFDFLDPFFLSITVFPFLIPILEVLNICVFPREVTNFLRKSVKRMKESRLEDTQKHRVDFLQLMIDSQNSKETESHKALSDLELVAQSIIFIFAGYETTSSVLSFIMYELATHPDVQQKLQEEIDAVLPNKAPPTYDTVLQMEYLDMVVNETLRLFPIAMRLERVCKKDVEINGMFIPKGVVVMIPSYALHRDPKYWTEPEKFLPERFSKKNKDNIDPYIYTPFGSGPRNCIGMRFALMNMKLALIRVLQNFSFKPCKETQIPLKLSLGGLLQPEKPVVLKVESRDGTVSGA
Cytochrome P450 2C9, sequence (P11712 whole entry): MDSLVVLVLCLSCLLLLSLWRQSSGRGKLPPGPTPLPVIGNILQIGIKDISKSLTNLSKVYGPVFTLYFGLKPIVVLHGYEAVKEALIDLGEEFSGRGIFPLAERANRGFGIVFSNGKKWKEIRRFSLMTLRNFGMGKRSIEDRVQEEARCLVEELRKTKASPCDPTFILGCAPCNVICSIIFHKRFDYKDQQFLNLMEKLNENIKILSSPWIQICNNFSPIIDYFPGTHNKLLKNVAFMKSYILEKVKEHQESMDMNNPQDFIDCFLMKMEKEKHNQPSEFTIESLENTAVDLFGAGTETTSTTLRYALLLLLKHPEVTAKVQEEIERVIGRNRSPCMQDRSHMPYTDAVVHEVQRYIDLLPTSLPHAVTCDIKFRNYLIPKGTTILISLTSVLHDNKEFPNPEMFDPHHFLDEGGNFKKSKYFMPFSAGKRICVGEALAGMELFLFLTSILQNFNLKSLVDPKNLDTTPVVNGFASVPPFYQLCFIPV
Cytochrome P450 1A2, sequence (P05177 whole entry): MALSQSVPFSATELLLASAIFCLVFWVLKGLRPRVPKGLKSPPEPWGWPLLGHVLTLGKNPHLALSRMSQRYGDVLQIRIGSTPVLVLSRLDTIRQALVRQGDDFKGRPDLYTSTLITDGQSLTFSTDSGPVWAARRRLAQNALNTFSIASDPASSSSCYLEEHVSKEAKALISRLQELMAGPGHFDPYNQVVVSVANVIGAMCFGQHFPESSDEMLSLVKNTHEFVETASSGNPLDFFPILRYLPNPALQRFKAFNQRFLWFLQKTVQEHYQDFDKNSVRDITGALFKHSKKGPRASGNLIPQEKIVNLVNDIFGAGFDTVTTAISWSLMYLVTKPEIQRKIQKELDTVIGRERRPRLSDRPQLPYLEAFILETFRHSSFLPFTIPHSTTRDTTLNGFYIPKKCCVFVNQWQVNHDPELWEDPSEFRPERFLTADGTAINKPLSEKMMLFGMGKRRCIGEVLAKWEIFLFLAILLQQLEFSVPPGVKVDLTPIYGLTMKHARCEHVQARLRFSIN
Cytochrome P450 2C19, sequence (P33261 whole entry): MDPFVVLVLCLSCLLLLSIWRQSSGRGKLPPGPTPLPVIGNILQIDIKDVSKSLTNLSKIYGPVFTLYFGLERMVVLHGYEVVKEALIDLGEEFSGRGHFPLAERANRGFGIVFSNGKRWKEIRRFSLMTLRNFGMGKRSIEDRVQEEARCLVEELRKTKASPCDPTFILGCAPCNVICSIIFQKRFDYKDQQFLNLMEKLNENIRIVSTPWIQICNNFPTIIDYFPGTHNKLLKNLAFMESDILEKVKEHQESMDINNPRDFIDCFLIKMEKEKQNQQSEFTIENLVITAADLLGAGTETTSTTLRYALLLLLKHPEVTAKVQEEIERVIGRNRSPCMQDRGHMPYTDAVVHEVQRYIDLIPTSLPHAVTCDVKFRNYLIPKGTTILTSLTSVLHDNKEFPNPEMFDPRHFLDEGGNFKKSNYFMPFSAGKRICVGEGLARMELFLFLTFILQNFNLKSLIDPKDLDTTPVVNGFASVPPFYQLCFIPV

Q: How did the IC50 [1] turn out when Cn1c(=O)oc2cc(N3CC4(CN5CCC4CC5)OC3=O)ccc21 (single isomer, unassigned) was run?
A: > 1 µM

Q: With O=C1O[C@]2(CN3CCC2CC3)CN1c1ccc(Cl)s1 as the compound, how does the Activity (Cytochrome P450 3A4) read?
A: Not Active

Q: What about the IC50 (Cytochrome P450 2D6) of the same compound?
A: 2 µM

Q: What about the Activity (Cytochrome P450 2C9) of the same compound?
A: Not Active

Q: What about the Activity (Cytochrome P450 1A2) of the same compound?
A: Not Active

Q: And the Activity (Cytochrome P450 2C19)?
A: Not Active

Q: CCc1c(C)oc2ccc(N3C[C@@]4(CN5CCC4CC5)OC3=O)cc12 was tested. Which Ki [1] did it give?
A: 0.015 µM

Q: With Cn1c(=O)sc2cc(N3CC4(CN5CCC4CC5)OC3=O)ccc21 (single isomer, unassigned) as the compound, how does the IC50 [1] read?
A: > 1 µM

Q: Which results are given for CCc1cc2cc(N3C[C@@]4(CN5CCC4CC5)OC3=O)ccc2s1?
A: IC50 (Cytochrome P450 2D6): > 30 µM; Ki [1]: 0.135 µM

Q: How did the Ki [1] turn out when O=C1O[C@]2(CN3CCC2CC3)CN1c1ccc2c(c1)OCCO2 was run?
A: 0.175 µM

Q: With O=C1OC2(CN3CCC2CC3)CN1c1ccc2ncccc2c1 (single isomer, unassigned) as the compound, how does the IC50 [1] read?
A: > 1 µM

Q: Which results are given for O=C1O[C@]2(CN3CCC2CC3)CN1c1ccc2c(c1)OCO2?
A: IC50 (Cytochrome P450 2D6): > 30 µM; Ki [1]: 0.037 µM; Activity [2]: Agonist

Q: Which results are given for O=C1O[C@@]2(CN3CCC2CC3)CN1c1ccc2occ(Br)c2c1?
A: IC50 (Cytochrome P450 2D6): > 30 µM; Ki [1]: 0.004 µM

Q: For Cc1nc2cc(N3C[C@@]4(CN5CCC4CC5)OC3=O)ccc2s1, which Ki [1] is on record?
A: 0.06 µM

Q: Which Ki [1] does the source give for O=C1O[C@]2(CN3CCC2CC3)CN1c1ccc2c(c1)OCC2 here?
A: 0.41 µM

Q: What does the source list for O=C1O[C@@]2(CN3CCC2CC3)CN1c1ccc(Br)s1?
A: IC50 (Cytochrome P450 2D6): 9 µM; Ki [1]: 0.004 µM
